Assay results reported in US12540131B2 (Merck Sharp & Dohme LLC, priority 2019, dated 2026).

These compounds were tested against GST tagged truncated human mutant G2019S LRRK2 (Homo sapiens (Human), UniProt Q5S007, G2019S) (assay: LRRK2 Km ATP LanthaScreen Assay). Conditions: G2019S LRRK2, 134 μM ATP (Km ATP), mean values.
Type: biochemical
Method in brief: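 Enzyme (GST-tagged, truncated) was preincubated with compound for 15 min at RT in 50 mM Tris pH 8.5, 10 mM MgCl2, 0.01% Brij-35, 1 mM EGTA, 2 mM DTT and 0.05 mM orthovanadate. Fluorescein-LRRKtide and 134 μM ATP (Km) were then added for 90 min. EDTA and Tb-anti-pERM antibody stopped the reaction; the TR-FRET 520/495 ratio gave 4-parameter IC50s, reported as mean pIC50.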

Sequence of GST tagged truncated human mutant G2019S LRRK2 (Q5S007 970-2527 G2019S): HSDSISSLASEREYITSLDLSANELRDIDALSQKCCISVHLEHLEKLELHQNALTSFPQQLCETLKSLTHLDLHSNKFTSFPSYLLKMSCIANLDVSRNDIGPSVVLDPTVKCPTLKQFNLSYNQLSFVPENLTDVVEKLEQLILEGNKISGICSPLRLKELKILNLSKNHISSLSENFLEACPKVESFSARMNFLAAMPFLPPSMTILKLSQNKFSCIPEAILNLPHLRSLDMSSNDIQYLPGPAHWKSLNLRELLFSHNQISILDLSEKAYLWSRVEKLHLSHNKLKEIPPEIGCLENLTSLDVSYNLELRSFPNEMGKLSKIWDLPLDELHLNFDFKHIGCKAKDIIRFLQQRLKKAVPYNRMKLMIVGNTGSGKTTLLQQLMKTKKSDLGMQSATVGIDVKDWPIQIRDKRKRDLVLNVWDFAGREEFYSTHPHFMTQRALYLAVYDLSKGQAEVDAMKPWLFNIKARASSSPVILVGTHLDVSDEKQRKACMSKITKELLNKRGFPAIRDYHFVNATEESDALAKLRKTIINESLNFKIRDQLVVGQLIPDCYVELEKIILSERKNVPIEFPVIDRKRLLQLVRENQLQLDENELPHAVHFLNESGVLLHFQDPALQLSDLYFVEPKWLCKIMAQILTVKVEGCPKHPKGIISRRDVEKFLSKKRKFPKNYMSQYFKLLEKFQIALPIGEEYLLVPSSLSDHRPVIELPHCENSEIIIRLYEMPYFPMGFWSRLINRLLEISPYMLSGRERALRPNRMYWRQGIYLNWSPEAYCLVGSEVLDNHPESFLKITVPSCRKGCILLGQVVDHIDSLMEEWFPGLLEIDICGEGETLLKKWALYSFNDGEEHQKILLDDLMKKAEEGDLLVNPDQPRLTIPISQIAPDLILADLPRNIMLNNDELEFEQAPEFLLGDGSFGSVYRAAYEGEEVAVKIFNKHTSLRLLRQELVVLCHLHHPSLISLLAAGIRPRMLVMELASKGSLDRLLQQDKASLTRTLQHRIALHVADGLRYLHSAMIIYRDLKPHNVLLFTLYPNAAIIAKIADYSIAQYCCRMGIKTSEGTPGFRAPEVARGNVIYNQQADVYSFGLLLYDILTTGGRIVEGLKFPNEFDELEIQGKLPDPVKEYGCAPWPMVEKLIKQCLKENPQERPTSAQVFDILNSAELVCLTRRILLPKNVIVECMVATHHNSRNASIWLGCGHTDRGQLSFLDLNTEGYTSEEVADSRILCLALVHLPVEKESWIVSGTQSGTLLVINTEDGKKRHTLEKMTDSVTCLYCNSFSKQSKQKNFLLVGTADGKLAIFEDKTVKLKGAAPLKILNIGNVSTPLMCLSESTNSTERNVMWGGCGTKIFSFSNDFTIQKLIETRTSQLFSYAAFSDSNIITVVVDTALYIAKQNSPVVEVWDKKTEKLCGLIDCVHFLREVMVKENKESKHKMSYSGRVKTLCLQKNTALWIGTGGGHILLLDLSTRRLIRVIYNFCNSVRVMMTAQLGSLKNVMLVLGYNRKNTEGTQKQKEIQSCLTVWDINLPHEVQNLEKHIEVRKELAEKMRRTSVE

Row | SMILES | LRRK2 pIC50
1 | Cc1cc2cnc(Nc3cnn(C4CC4(F)F)c3C)nc2cc1[C@@H]1CCN([C@@H]2COC[C@@H]2O)C[C@H]1F (single isomer, unassigned) [Ex-4.146, (R)(3S,4S)(3S,4S) or (R)(3S,4S)(3R,4R) or (R)(3R,4R)(3S,4S) or (R)(3R,4R)(3R,4R) or (S)(3S,4S)(3S,4S) or (S)(3S,4S)(3R,4R) or (S)(3R,4R)(3S,4S) or (S)(3R,4R)(3R,4R) 4-[4-(2-{[1-(2,2-difluorocyclopropyl)-5-methyl-1H-pyrazol-4-yl]amino}-6-methylquinazolin-7-yl)-3-fluoropiperidin-1-yl]oxolan-3-ol] | >9.20
2 | Cc1cc2cnc(Nc3cnn(C4CC4(F)F)c3Cl)nc2cc1[C@@H]1CCN([C@@]2(C)COC[C@H]2O)C[C@H]1F (single isomer, unassigned) [Ex-4.147, (R)(3S,4S)(3S,4S) or (R)(3S,4S)(3R,4R) or (R)(3R,4R)(3S,4S) or (R)(3R,4R)(3R,4R) or (S)(3S,4S)(3S,4S) or (S)(3S,4S)(3R,4R) or (S)(3R,4R)(3S,4S) or (S)(3R,4R)(3R,4R) 4-[4-(2-{[5-chloro-1-(2,2-difluorocyclopropyl)-1H-pyrazol-4-yl]amino}-6-methylquinazolin-7-yl)-3-fluoropiperidin-1-yl]-4-methyloxolan-3-ol] | >9.20
3 | Cc1cc2cnc(Nc3cnn(C4CC4)c3Cl)nc2cc1[C@@H]1CCN([C@@]2(C)COC[C@H]2O)C[C@H]1F (single isomer, unassigned) [Ex-4.148, (3S,4S)(3S,4S) or (3S,4S)(3R,4R) or (3R,4R)(3S,4S) or (3R,4R)(3R,4R) 4-(4-{2-[(5-chloro-1-cyclopropyl-1H-pyrazol-4-yl)amino]-6-methylquinazolin-7-yl}-3-fluoropiperidin-1-yl)-4-methyloxolan-3-ol] | >9.20
4 | Cc1cc2cnc(Nc3cnn(C4CC4)c3Cl)nc2cc1[C@@H]1CCN([C@]2(C)COC[C@@H]2O)C[C@H]1F (single isomer, unassigned) [Ex-4.149, (3S,4S)(3S,4S) or (3S,4S)(3R,4R) or (3R,4R)(3S,4S) or (3R,4R)(3R,4R) 4-(4-{2-[(5-chloro-1-cyclopropyl-1H-pyrazol-4-yl)amino]-6-methylquinazolin-7-yl}-3-fluoropiperidin-1-yl)-4-methyloxolan-3-ol] | >9.20
5 | Cc1cc2cnc(Nc3cnn(C4CC4)c3Cl)nc2cc1[C@@H]1CCN([C@@H]2COC[C@@H]2O)C[C@H]1F (single isomer, unassigned) [Ex-4.150, (3S,4S)(3S,4S) or (3S,4S)(3R,4R) or (3R,4R)(3S,4S) or (3R,4R)(3R,4R) 4-(4-{2-[(5-chloro-1-cyclopropyl-1H-pyrazol-4-yl)amino]-6-methylquinazolin-7-yl}-3-fluoropiperidin-1-yl)oxolan-3-ol] | >9.20
6 | O[C@H]1COC[C@H]1N1CCC(c2cc3nc(Nc4cnn(C56CC(C5)C6)c4)ncc3cc2Cl)CC1 (single isomer, unassigned) [Ex-4.151, (3S,4S) or (3R,4R) 4-[4-(2-{[1-(bicyclo[1.1.1]pentan-1-yl)-1H-pyrazol-4-yl]amino}-6-chloroquinazolin-7-yl)piperidin-1-yl]oxolan-3-ol] | 8.98
7 | O[C@@H]1COC[C@@H]1N1CCC(c2cc3nc(Nc4cnn(C56CC(C5)C6)c4)ncc3cc2Cl)CC1 (single isomer, unassigned) [Ex-4.152, (3S,4S) or (3R,4R) 4-[4-(2-{[1-(bicyclo[1.1.1]pentan-1-yl)-1H-pyrazol-4-yl]amino}-6-chloroquinazolin-7-yl)piperidin-1-yl]oxolan-3-ol] | >9.20
8 | O[C@@H]1COC[C@@H]1N1CC[C@@H](c2cc3nc(Nc4cnn(C56CC(C5)C6)c4)ncc3cc2Cl)[C@H](F)C1 (single isomer, unassigned) [Ex-4.153, (3S,4S)(3S,4S) or (3S,4S)(3R,4R) or (3R,4R)(3S,4S) or (3R,4R)(3R,4R) 4-[4-(2-{[1-(bicyclo[1.1.1]pentan-1-yl)-1H-pyrazol-4-yl]amino}-6-chloroquinazolin-7-yl)-3-fluoropiperidin-1-yl]oxolan-3-ol] | >9.20
9 | O[C@H]1COC[C@H]1N1CC[C@@H](c2cc3nc(Nc4cnn(C56CC(C5)C6)c4)ncc3cc2Cl)[C@H](F)C1 (single isomer, unassigned) [Ex-4.154, (3S,4S)(3S,4S) or (3S,4S)(3R,4R) or (3R,4R)(3S,4S) or (3R,4R)(3R,4R) 4-[4-(2-{[1-(bicyclo[1.1.1]pentan-1-yl)-1H-pyrazol-4-yl]amino}-6-chloroquinazolin-7-yl)-3-fluoropiperidin-1-yl]oxolan-3-ol] | 9.06
10 | O[C@@H]1COC[C@@H]1N1CC[C@H](c2cc3nc(Nc4cnn(C56CC(C5)C6)c4)ncc3cc2Cl)[C@@H](F)C1 (single isomer, unassigned) [Ex-4.155, (3S,4S)(3S,4S) or (3S,4S)(3R,4R) or (3R,4R)(3S,4S) or (3R,4R)(3R,4R) 4-[4-(2-{[1-(bicyclo[1.1.1]pentan-1-yl)-1H-pyrazol-4-yl]amino}-6-chloroquinazolin-7-yl)-3-fluoropiperidin-1-yl]oxolan-3-ol] | >9.20
11 | O[C@H]1COC[C@H]1N1CC[C@H](c2cc3nc(Nc4cnn(C56CC(C5)C6)c4)ncc3cc2Cl)[C@@H](F)C1 (single isomer, unassigned) [Ex-4.156, (3S,4S)(3S,4S) or (3S,4S)(3R,4R) or (3R,4R)(3S,4S) or (3R,4R)(3R,4R) 4-[4-(2-{[1-(bicyclo[1.1.1]pentan-1-yl)-1H-pyrazol-4-yl]amino}-6-chloroquinazolin-7-yl)-3-fluoropiperidin-1-yl]oxolan-3-ol] | >9.20
12 | OC1CCCC1N1CC[C@@H](c2cc3nc(Nc4cnn(C5CC5)c4Cl)ncc3cc2Cl)[C@H](F)C1 (single isomer, unassigned) [Ex-4.157, (1S,2R)(3S,4S) or (1R,2S)(3S,4S) or (1R,2R)(3S,4S) or (1S,2S)(3S,4S) or (1S,2R)(3R,4R) or (1R,2S)(3R,4R) or (1R,2R)(3R,4R) or (1S,2S)(3R,4R) 2-(4-{6-chloro-2-[(5-chloro-1-cyclopropyl-1H-pyrazol-4-yl)amino]quinazolin-7-yl}-3-fluoropiperidin-1-yl)cyclopentan-1-ol] | 8.38
13 | OC1CCCC1N1CC[C@H](c2cc3nc(Nc4cnn(C5CC5)c4Cl)ncc3cc2Cl)[C@@H](F)C1 (single isomer, unassigned) [Ex-4.158, (1S,2R)(3S,4S) or (1R,2S)(3S,4S) or (1R,2R)(3S,4S) or (1S,2S)(3S,4S) or (1S,2R)(3R,4R) or (1R,2S)(3R,4R) or (1R,2R)(3R,4R) or (1S,2S)(3R,4R) 2-(4-{6-chloro-2-[(5-chloro-1-cyclopropyl-1H-pyrazol-4-yl)amino]quinazolin-7-yl}-3-fluoropiperidin-1-yl)cyclopentan-1-ol] | 8.99
